Results: US10065957B2, “Beta-lactamase inhibitors” (Novartis AG, priority 2016, dated 2018)

Columns and labels:
Assay type in all cases: cell-based
[1] = test system: E. coli (CTX-M-15); test: microbe, parasite or virus in culture; conditions: for MIC of aztreonam with beta-lactamase inhibitor: AZ + BLI at 2 μg/mL; for Activity of Beta-Lactam 5 with beta-lactamase inhibitor: Beta-Lactam 5 + BLI at 2 μg/mL; for MIC of ceftazidime with beta-lactamase inhibitor: Ceft + BLI at 2 μg/mL; for MIC of meropenem with beta-lactamase inhibitor: Mero + BLI at 2 μg/mL
Experimental: (§1) MICs were determined by the broth microdilution method in accordance with Clinical and Laboratories Institute (CLSI) guidelines. In brief, fresh overnight bacterial cultures were suspended in sterile saline, and adjusted to a 0.5 McFarland turbidity standard. Bacterial suspensions were then diluted in cation adjusted Mueller-Hinton Broth (MHB II; BBL) to yield a final inoculum of approximately 5×10^5 colony-forming units (CFU)/mL. A master plate of antibiotics was prepared at a concentration equivalent to hundred-fold the highest desired final concentration in 100% dimethyl sulfoxide (DMSO). The master antibiotic plate was then diluted by serial twofold dilution with a multichannel pipette. The resulting dilution series of compounds were diluted 1:10 with sterile water or a solution of beta-lactamase inhibitor prepared at a concentration equivalent to eleven-fold the desired final concentration in deionized water leading to a 10% DMSO final concentration. A volume of 10 μL of the drug dilution series was transferred to 96-well assay plates. Assay plates were inoculated with 90 μL of bacterial suspensions and incubated at 35° C. for 20 hrs. The assay plates were read using a microtiter plate reader (Molecular Devices) at 600 nm as well as by visual observation with a reading mirror. The lowest concentration of the compound that prevented visible growth was recorded as the MIC.
(§2) Synergy or potentiation of beta-lactam antibiotics through inhibition of Q-lactamases was assessed against an isogenic panel of E. coli strains, each expressing a unique beta-lactamase, and against clinical strains.
(§3) Strain NB27273 (BW25113 pspB::Km^r) was obtained from the Keio transposon insertion collection. The strain has the pspB gene replaced by a kanamycin resistance marker (BW25113 pspB::Km^r). This strain was cured of the transposon in pspB via FLP recombinase using published methodology. The resulting strain, BW25113 pspB, was used as a host for multicopy vectors expressing key beta-lactamases. Multicopy plasmids directing constitutive expression of beta-lactamases were established as follows: Synthetic, codon optimized genes encoding E. coli KPC-2, SHV-12 and CTX-M-15 beta-lactamases were made by DNA2.0 (Palo Alto, Calif.). Each of the synthetic fragments were designed to contain NotI and NcoI restriction sites at their termini, allowing ligation into a NotI/NcoI digested pET28a(+) derivative for protein expression. […] The codon optimized nucleotide sequences and relevant primer recognition information is shown below:
(§4) The PCR products were then digested with XhoI and EcoRI and ligated into similarly digested plasmid pAH63-pstS(BlaP). […] Therefore, expression of beta-lactamases from pAH63-pstS(BlaP) based constructs is constitutive and the signal sequence is provided to direct these proteins to the periplasm. […] These fragments were then digested with XbaI and EcoRI, and each was inserted into pBAD18-kan that had been digested with the same enzymes to generate multicopy vectors expressing KPC-2, SHV-12 and CTX-M-15, respectively. These vectors were transformed into BW25113 pspB to generate strains NB27273-CDY0033 (expressing KPC-2), NB27273-CDY0030 (expressing SHV-12), NB27273-CDY0034 (expressing CTX-M-15) and NB27273-CDY0036 (expressing AmpC). The pBAD18-kan vector also contains the TEM promoter region and signal sequence, (but lacks any intact beta-lactamase genes) and was transformed into BW25113 pspB using standard protocols to generate the control strain NB27273-CDY0026.

[2] = test system: E. coli (KPC-2); test: microbe, parasite or virus in culture; conditions: E. coli (KPC-2); for MIC of aztreonam with beta-lactamase inhibitor: AZ + BLI at 2 μg/mL; for Activity of Beta-Lactam 5 with beta-lactamase inhibitor: Beta-Lactam 5 + BLI at 2 μg/mL; for MIC of ceftazidime with beta-lactamase inhibitor: Ceft + BLI at 2 μg/mL; for MIC of meropenem with beta-lactamase inhibitor: Mero + BLI at 2 μg/mL
Experimental: as §1, §2, §3, §4

[3] = test system: E. coli (SHV-12); test: microbe, parasite or virus in culture; conditions: for MIC of aztreonam with beta-lactamase inhibitor: AZ + BLI at 2 μg/mL; for Activity of Beta-Lactam 5 with beta-lactamase inhibitor: Beta-Lactam 5 + BLI at 2 μg/mL; for MIC of ceftazidime with beta-lactamase inhibitor: Ceft + BLI at 2 μg/mL; for MIC of meropenem with beta-lactamase inhibitor: Mero + BLI at 2 μg/mL
Experimental: as §1, §2, §3, §4

[4] = test system: E. coli (TEM-10); test: microbe, parasite or virus in culture; conditions: for MIC of aztreonam with beta-lactamase inhibitor: AZ + BLI at 2 μg/mL; for Activity of Beta-Lactam 5 with beta-lactamase inhibitor: Beta-Lactam 5 + BLI at 2 μg/mL; for MIC of ceftazidime with beta-lactamase inhibitor: Ceft + BLI at 2 μg/mL; for MIC of meropenem with beta-lactamase inhibitor: Mero + BLI at 2 μg/mL
Experimental: as §1, §2
Construction of E. coli isogenic strains, NB27273-CDY0105 (OXA-18) and NB27273-CDY0048 (TEM-10). […] The gene encoding OXA-18 was then digested with XhoI and EcoRI and inserted into this vector, from which the gene for GIM-1 had been removed with XhoI and EcoRI.
From this template DNA, three fragments were generated by PCR using the following primer pairs;
This fragment was then digested with XbaI and EcoRI and inserted into pBAD-kan which was also cut with the same enzymes.
These final vectors for expression of OXA-18 and TEM-10 were transformed into BW25113 pspB to generate strains NB27273-CDY0105 (expressing OXA-18) and NB27273-CDY0048 (expressing TEM-10).

[5] = test system: E. coli ATCC 25922, K. pneumoniae ATCC 43816, P. aeruginosa ATCC 27853; test: Direct antibacterial activity of BLIs alone, summary of Table A; conditions: BLI alone, in words
Experimental: as §1, with “A volume of 10 μL of the drug dilution series was transferred to 96-well assay plates. Assay plates were inoculated with 90 μL of bacterial suspensions and incubated at 35° C. for 20 hrs.” left out, “MIC. Performance of the assay was monitored by testing aztreonam against laboratory quality control strains in accordance with guidelines of the CLSI.” for “MIC.”

[6] = test system: Enterobacter cloacae NB25055 (CMY-2); test: Potentiation of piperacillin in beta-lactam resistant clinical isolate; conditions: Pip + BLI at 2 μg/mL
Experimental: as §1, with “MIC. Performance of the assay was monitored by testing aztreonam against laboratory quality control strains in accordance with guidelines of the CLSI.” for “MIC.”
as §2

[7] = test system: K. pneumoniae NB29082 (KPC-2); test: as above; conditions: Pip + BLI at 2 μg/mL
Experimental: as §1, with “MIC. Performance of the assay was monitored by testing aztreonam against laboratory quality control strains in accordance with guidelines of the CLSI.” for “MIC.”
as §2

[8] = test system: S. aureus NB01437 (BLA+); test: as above; conditions: Pip + BLI at 2 μg/mL
Experimental: as §1, with “MIC. Performance of the assay was monitored by testing aztreonam against laboratory quality control strains in accordance with guidelines of the CLSI.” for “MIC.”
as §2

Compound | MIC of aztreonam with beta-lactamase inhibitor [1] [µg/mL] | Activity of Beta-Lactam 5 with beta-lactamase inhibitor [1] [µg/mL] | MIC of ceftazidime with beta-lactamase inhibitor [1] [µg/mL] | MIC of meropenem with beta-lactamase inhibitor [1] [µg/mL] | MIC of aztreonam with beta-lactamase inhibitor [2] [µg/mL] | Activity of Beta-Lactam 5 with beta-lactamase inhibitor [2] [µg/mL] | MIC of ceftazidime with beta-lactamase inhibitor [2] [µg/mL] | MIC of meropenem with beta-lactamase inhibitor [2] [µg/mL] | MIC of aztreonam with beta-lactamase inhibitor [3] [µg/mL] | Activity of Beta-Lactam 5 with beta-lactamase inhibitor [3] [µg/mL] | MIC of ceftazidime with beta-lactamase inhibitor [3] [µg/mL] | MIC of meropenem with beta-lactamase inhibitor [3] [µg/mL] | MIC of aztreonam with beta-lactamase inhibitor [4] [µg/mL] | Activity of Beta-Lactam 5 with beta-lactamase inhibitor [4] [µg/mL] | MIC of ceftazidime with beta-lactamase inhibitor [4] [µg/mL] | MIC of meropenem with beta-lactamase inhibitor [4] [µg/mL] | direct antibacterial activity [5] | Activity of piperacillin with beta-lactamase inhibitor [6] [µg/mL] | Activity of piperacillin with beta-lactamase inhibitor [7] [µg/mL] | Activity of piperacillin with beta-lactamase inhibitor [8] [µg/mL]
NC(=O)[C@@H]1CC[C@@H]2CN1C(=O)N2OS(=O)(=O)O [Avibactam] | 0.125 | 0.25 | 0.25 | ≤0.06 | 0.125 | 0.125 | 0.25 | ≤0.06 | 1 | 0.125 | 0.5 | ≤0.06 | 0.25 | 0.125 | 1 | ≤0.06 | exhibit direct antibacterial activity | – | – | –
O=C1NC[C@@H]2C[C@@H]3CN(C(=O)N3OS(=O)(=O)[O-])[C@H]12.[Na+] [Example 1, Sodium (4R,5aS,8aS)-2,8-dioxohexahydro-2H-1,4-methanopyrrolo[3,4-d][1,3]diazepin-3(4H)-yl sulfate] | ≤0.06 | 0.25 | 0.25 | ≤0.06 | 0.125 | 0.25 | 0.125 | ≤0.06 | 0.25 | 0.25 | 0.25 | ≤0.06 | 0.125 | 0.125 | 0.25 | ≤0.06 | does not exhibit much direct antibiotic activity | 4 | 8 | 1
O=C(NC1CCNCC1)[C@@H]1CC[C@@H]2CN1C(=O)N2OS(=O)(=O)O [Relebactam] | 0.5 | 0.25 | 0.5 | ≤0.06 | 1 | 0.125 | 0.25 | ≤0.06 | 32 | 0.125 | 8 | ≤0.06 | 2 | 0.25 | 8 | ≤0.06 | – | – | – | –
